Legend:
[1] = Cytotoxicity against mouse L929 cells assessed as cell growth inhibition at 10 uM incubated for 24 hrs by CCK-8 assay relative to control; assay type: toxicity, cell-based; conditions: read-out: Activity
[2] = system: L929; experiment: Cytotoxicity against mouse L929 cells assessed as reduction in live cells at 10 uM incubated for 24 hrs by calcein-AM/PI staining based fluorescence microscopic analysis relative to control (reference value: 8.65%); assay type: toxicity, cell-based; set-up: scale not given: the % may be the effect or the level left; conditions: l929, 24 h
[3] = system: HeLa; experiment: Induction of apoptosis in human HeLa cells assessed as early apoptotic cells at 10 uM incubated for 24 hrs by Annexin V-PE staining based flow cytometry analysis (reference value: 2.55%); assay type: functional
[4] = system: HeLa; experiment: Antiproliferative activity against human HeLa cells assessed as reduction in live cells at 10 uM incubated for 24 hrs by calcein-AM/PI staining based fluorescence microscopic analysis relative to control (reference value: 3.78%); assay type: functional; set-up: scale not given: the % may be the effect or the level left
[5] = system: HeLa; experiment: Induction of apoptosis in human HeLa cells assessed as late apoptotic cells at 10 uM incubated for 24 hrs by Annexin V-PE staining based flow cytometry analysis (reference value: 0.02%); assay type: functional
[6] = system: HeLa; experiment: Induction of apoptosis in human HeLa cells assessed as viable cells at 10 uM incubated for 24 hrs by Annexin V-PE staining based flow cytometry analysis (reference value: 97.43%); assay type: functional; conditions: read-out: Activity
[7] = system: L929; experiment: Induction of apoptosis in mouse L929 cells assessed as early apoptotic cells at 10 uM incubated for 24 hrs by Annexin V-PE staining based flow cytometry analysis (reference value: 1.47%); assay type: functional
[8] = system: L929; experiment: Induction of apoptosis in mouse L929 cells assessed as late apoptotic cells at 10 uM incubated for 24 hrs by Annexin V-PE staining based flow cytometry analysis (reference value: 0.53%); assay type: functional
[9] = system: HeLa; experiment: Antiproliferative activity against human HeLa cells assessed as reduction in dead cells at 10 uM incubated for 24 hrs by calcein-AM/PI staining based fluorescence microscopic analysis relative to control (reference value: 0.15%); assay type: functional; set-up: scale not given: the % may be the effect or the level left
[10] = system: HeLa; experiment: Induction of apoptosis in human HeLa cells assessed as necrotic cells at 10 uM incubated for 24 hrs by Annexin V-PE staining based flow cytometry analysis (reference value: 0.00%); assay type: functional
[11] = system: L929; experiment: Cytotoxicity against mouse L929 cells assessed as reduction in dead cells at 10 uM incubated for 24 hrs by calcein-AM/PI staining based fluorescence microscopic analysis relative to control (reference value: 0.38%); assay type: toxicity, cell-based; set-up: scale not given: the % may be the effect or the level left; conditions: l929, 24 h
[12] = system: HeLa; experiment: Antiproliferative activity against human HeLa cells assessed as cell growth inhibition at 10 uM incubated for 24 hrs by CCK-8 assay relative to control; assay type: functional; set-up: scale not given: the % may be the effect or the level left
[13] = system: L929; experiment: Induction of apoptosis in mouse L929 cells assessed as necrotic cells at 10 uM incubated for 24 hrs by Annexin V-PE staining based flow cytometry analysis (reference value: 0.00%); assay type: functional
[14] = system: L929; experiment: Induction of apoptosis in mouse L929 cells assessed as viable cells at 10 uM incubated for 24 hrs by Annexin V-PE staining based flow cytometry analysis (reference value: 98%); assay type: functional; conditions: read-out: Activity

SMILES	inhibition at 24 h, 10 µM [1] [%]	Activity [2] [%]	Activity [3] [%]	Activity [4] [%]	Activity [5] [%]	viability at 10 µM [6] [%]	Activity [7] [%]	Activity [8] [%]	Activity [9] [%]	Activity [10] [%]	Activity [11] [%]	Activity [12] [%]	Activity [13] [%]	viability at 10 µM [14] [%]
C=CCCC(=O)OC[C@]12CC[C@@H](C(=C)C)[C@@H]1[C@H]1CC[C@@H]3[C@@]4(C)CC[C@H](O)C(C)(C)[C@@H]4CC[C@@]3(C)[C@]1(C)CC2	29	2.15	10.95	1.4	30.3	58.2	9.38	5.86	1.02	0.53	2.83	37	0	84.8
C=CCCCCCCCCC(=O)OC[C@]12CC[C@@H](C(=C)C)[C@@H]1[C@H]1CC[C@@H]3[C@@]4(C)CC[C@H](O)C(C)(C)[C@@H]4CC[C@@]3(C)[C@]1(C)CC2	47	4.65	0.98	2.03	18.58	79	0.75	4.55	0.69	1.41	1.77	55	1.29	82
C/C1=C/CCCCCCCCC(=O)OC[C@]23CC[C@@H]1[C@@H]2[C@H]1CC[C@@H]2[C@@]4(C)CC[C@H](O)C(C)(C)[C@@H]4CC[C@@]2(C)[C@]1(C)CC3		3.67	2.66	1.29	26.22	70.5	12.6	5.04	0.91	0.61	2.1		5.18	77.2
C=C(C)[C@@H]1CC[C@]2(CO)CC[C@]3(C)[C@H](CC[C@@H]4[C@@]5(C)CC[C@H](O)C(C)(C)[C@@H]5CC[C@]43C)[C@@H]12 [BETULIN]	55	5.19	12.16	2.8	0.03	87.8	2.94	0.61	0.53	0	0.79	58	0	96.5
C/C1=C/CCC(=O)OC[C@]23CC[C@@H]1[C@@H]2[C@H]1CC[C@@H]2[C@@]4(C)CC[C@H](O)C(C)(C)[C@@H]4CC[C@@]2(C)[C@]1(C)CC3		1.71	5.09	0.46	62.84	31.4	0.12	72.6	1.78	0.65	5.76		21.59	5.69

Reference: ChEMBL document CHEMBL5252596, “Synthesis and Cytotoxicity Evaluation of Betulin Cycloolefin Derivatives by Ruthenium-Catalyzed Ring-Closing Metathesis” (J Nat Prod, 2023)
